Laboratory results published in patent US20110237535A1, “Use of Induced Pluripotent Cells and other Cells for Screening Compound Libraries” (priority 2010, published 2011).
Entries after “also recorded” stand apart in the source; their conditions may differ. Like-named read-outs stand apart in the source and are kept apart here.

Experiments:
HeLa cells = type: cell-based
Experimental: In another experiment HeLa cells were treated with 100 uM of tamoxifen (a calcium influx stimulator), doxorubicin (a DNA damaging agent), cycloheximide (a protein synthesis inhibitor), digitonin (a mild detergent), and a buffer, and monitored every 15 minutes on a BIND™ Reader for 40 hours in a 37° C. incubator. The cytotoxic compounds each have distinct mechanisms of action that have distinct kinetic profiles in the assays of the invention. Toxins can be tested for their effect on differing types of cells and can be placed into a class or sub-class of toxins (e.g. calcium influx stimulator) based on their kinetic profiles. These assays have a higher throughput than electrical impedance testing for screening and profiling of toxic compounds.

[1] = tested on: mES-derived cardiomyocytes (Cor.At); experiment: Doxorubicin toxicity on mES-derived cardiomyocytes, constant PWV monitoring; type: cell-based, murine
Experimental: mES-derived cardiomyocytes (Cor.At) were obtained from Axiogenesis/Lonza. 5,000 cells per well were plated on fibronectin-coated 384 well biosensor plates for 24 h before experiment. These cells beat in culture. Cells were treated with doxorubicin for 17 h at 37° C. with constant monitoring using the BIND™ Reader. […] There is an oscillation of PWVs that indicates the beating of the cells. The amplitude of the beating becomes stronger over time. That is, there is Y axis spread of the PWV reading grows larger over time as the cells beat stronger in culture.

[2] = tested on: Murine embryonic stem cell-derived cardiomyocytes; experiment: Beating amplitude and frequency of cardiomyocytes, PWV at 4 reads per second; type: cell-based
Experimental: Murine embryonic stem cell-derived cardiomyocytes were added to wells of a biosensor and a BIND™ Reader recorded PWVs at the rate of 4 reads per second. One well was treated with KCl and another well was not treated. The cells beat synchronously when cultured on BIND™ optical biosensors and the frequency of the beating can be detected. […] The BIND™ Reader detects beating frequency and rate as oscillations of positive-negative PWV shifts. Kinetic PWV profiles can be used to accurately measure beating rate and frequency. Therefore, the assay provides an ultra high-throughput assay to measure off-target drug effects on cardiotoxicity and contractility.
In another experiment the cardiomyocytes were plated at 20,000 cells per well on fibronectin coated biosensor plates. The cells were incubated for 72 h at 37° C. before the experiment. The cells were monitored for 3 minutes before KCl was added to 50 mM final concentration.
In another experiment cardiomyocytes were treated for 17 hours with several different concentrations of doxorubicin (10 μM, 1 μM, 0.1 μM, 0.01 μM, and 0 μM). The beating amplitude and frequency was measured at 4 reads/second prior to doxorubicin treatment, then again after the 17 hour doxorubicin incubation.

cardiomyocytes = experiment: Cardiomyocyte beating recorded with refined high-speed BIND Cartridge Reader; type: cell-based; conditions: 6, 10 and 15 minutes after addition, FIG. 17
Excerpt: An Ocean Optics HT2000+ spectrometer in a BIND™ Cartridge Reader was altered so that the slit that allows light into the spectrometer was widened, allowing more light to enter the enter the spectrometer. Therefore, recordings of up to 1000 Hz, i.e. up to 1000 readings/second can be obtained when the BIND™ Cartridge Reader is “parked” (i.e., the BIND™ Cartridge Reader remains in one position over, e.g., a well holding cells). The recordings are made continually in real-time. Recordings can be taken at about 2, 4, 10, 50, 80, 100, 250, 280, 300, 400, 500, 600, 700, 800, 900, 1,000 or more Hz (or any range between about 2 and about 1,000 Hz).
The refined BIND™ Cartridge Reader was used to take measurements of cardiomyocyte beating. […] By comparison, the data in Examples 1 and 2 was measured at 4 Hz. The increased sampling rate allows a much more refined look at the shape of each individual beat. Different beating “phenotypes” can be determined from well-to-well, in addition, the difference between synchronous beating across the well and asynchronous beating can be determined. […]
Amitriptyline is a tricyclic antidepressant sold under the trade name Elavil™. […] Amitriptyline was added to cardiomyocytes that were beating in culture and PWVs were constantly monitored. […]

[3] = FIG. 6-9, cell line not restated in these blocks
[4] = KCl-treated well vs untreated well, FIG. 11

Row | Compound | kinetic profile (PWV over time) (HeLa cells; [3]) | other results
1 | CC/C(=C(\c1ccccc1)c1ccc(OCCN(C)C)cc1)c1ccccc1 [tamoxifen] | sharp downward shift in PWV at early time points | –
2 | 4-hydroxy-tamoxifen | faster onset of toxicity than tamoxifen | –
3 | COc1cccc2c1C(=O)c1c(O)c3c(c(O)c1C2=O)C[C@@](O)(C(=O)CO)C[C@@H]3O[C@H]1C[C@H](N)[C@H](O)[C@H](C)O1 [doxorubicin] | sudden onset, steep decline, followed by a negative PWV plateau | PWV readings ([1]; doxorubicin 17 h at 37° C., 5,000 cells per well, FIG. 10): PWV readings become negative; also recorded: dose dependant; amplitude of beating over time ([1]; doxorubicin 17 h at 37° C., FIG. 10A): becomes weaker over time; amplitude and frequency of beating ([2]; 17 hours doxorubicin at 10 μM, 1 μM, 0.1 μM, 0.01 μM, 0 μM, FIG. 14): disrupted by doxorubicin in a concentration-dependent manner
4 | [Cl-].[K+] [KCl] | – | rate and frequency of the beating ([2]; KCl 50 mM final concentration, added after 3 minutes of monitoring, 20,000 cells per well, FIG. 13): drastically reduced; amplitude of the beating [2, 4]: loss of amplitude of the beating; frequency of the beating [2, 4]: decrease in the frequency of the beating
5 | N.N.[Cl][Pt][Cl] [Cisplatin] | sudden onset, steep decline, followed by a negative PWV plateau | –
6 | O=C(c1ccc(OCCN2CCCCC2)cc1)c1c(-c2ccc(O)cc2)sc2cc(O)ccc12 [raloxifene] | lack of cytotoxic response | –
7 | CO[C@@]12[C@H](COC(N)=O)C3=C(C(=O)C(C)=C(N)C3=O)N1C[C@@H]1N[C@@H]12 [mitomycin] | sudden onset, steep decline, followed by a negative PWV plateau | –
8 | CC[C@]1(O)C[C@@H]2CN(CCc3c([nH]c4ccccc34)[C@@](C(=O)OC)(c3cc4c(cc3OC)N(C)[C@H]3[C@@](O)(C(=O)OC)[C@H](OC(C)=O)[C@]5(CC)C=CCN6CC[C@]43[C@@H]65)C2)C1 [vinblastine] | rapid acute response and then a gradual negative PWV shift over the long term | –
9 | CC[C@@]1(O)C(=O)OCc2c1cc1n(c2=O)Cc2cc3ccccc3nc2-1 [Camptothecin] | somewhat different kinetic profile | –
10 | [K+].[K+].[O]=[Cr](=[O])([O-])[O][Cr](=[O])(=[O])[O-] [potassium dichromate] | – | kinetic profile (PWV over time) (HeLa cells): sudden onset, steep decline, followed by a negative PWV plateau
11 | CN(C)CCC=C1c2ccccc2CCc2ccccc21 [amitriptyline] | – | beating pattern after compound addition (cardiomyocytes): change from regular, synchronous beating to irregular, non-synchronous beating
